Measured values as given in US20030017565A1, “COMPOSITION AND METHOD FOR TREATING A POROUS ARTICLE AND USE THEREOF” (priority 1996, published 2003).

What was measured:
Type in all cases: physicochemical
[1] = leaching of Japan cedar blocks, liquid treatment agent stored 2 weeks (Example 21); settings: diluted 10-fold; for Elution Rate (%) LSA: liquid agent (6 g powder in 12 ml) stored airtight 2 weeks, Japan cedar; for Elution Rate (%) Chemical Agent: liquid agent stored airtight 2 weeks, species as bracketed (Copper, Zinc, Nickel, Boron, H = hinokitiol), else the agent named
Protocol: Further, 6 g of the powdery treatment agent obtained in the same manner as described above was dissolved in 12 ml of deionized water to obtain a liquid treatment agent for a porous article. The liquid treatment agent was transferred into a 20 ml screw capped test tube. After the test tube stand airtightly at room temperature for 2 weeks, the liquid treatment agent was diluted 10-fold with deionized water to prepare a solution for treating a porous article. Japan cedar wood blocks were subjected to reduced pressure impregnation treatment with the solution thus obtained, drying/macromolecularization reaction, and elution treatment in the same manner as in Examples 3 and 4. The amounts of the lignosulfonic acid which were eluted were calculated and compared taking the amounts of it injected upon the impregnation treatment as 100%.

[2] = leaching of Japan cedar blocks, powdery treatment agent stored 2 weeks (Example 21); settings: 5 g in 100 ml; for Elution Rate (%) LSA: powdery agent (10 mg enzyme + 10 g LSA + agent) stored 2 weeks, Japan cedar; for Elution Rate (%) Chemical Agent: powdery agent stored 2 weeks, species as bracketed (Copper, Zinc, Nickel, Boron, H = hinokitiol), else the agent named
Protocol: 10 mg of the freeze-dried product described in Example 1, 10 g of commercially available lignosulfonic acid (LSA) powder, and various chemical agents were mixed well in a mortar to obtain a treatment agent for treating a porous article. If desired, a small amount of sodium carbonate powder was added to the resulting powder and mixed well, so that when a 5% aqueous solution was prepared from the above-described powder the solution could have a pH of 8.0 to 9.0. Then, after the powdery treatment agent was left to stand at room temperature for 2 weeks, 5 g of the powder was dissolved in 100 ml of deionized water to prepare a solution for treating a porous article. Using this solution, Japan cedar wood blocks were subjected to reduced pressure impregnation, drying/macromolecularization reaction, and leaching in the same manner as in Examples 3 and 4. Taking the amounts of lignosulfonic acid and chemical agents injected upon the impregnation treatment as 100%, respectively, the amounts of them which was eluted were compared. The results are shown in Table 12, from which it can be seen that the powdery treatment agent enables effective treatment of porous articles.

[3] = leaching of cypress blocks, bilirubin oxidase (Example 6); settings: for Elution Rate (%) LSA: pH 8.1-8.8; for Elution Rate (%) Chemical Agent: pH 8.1-8.8, species as bracketed (Copper, Zinc, Nickel, Boron, H = hinokitiol), else the agent named
Text: Taking the amounts of the lignosulfonic acid (LSA) and chemical agent as injected upon the impregnation treatment as 100%, respectively, the amounts of the substances which were eluted were compared.

[4] = leaching of Japan cedar blocks treated with LSA and chemical agents (Example 4); settings: 5% LSA; for Elution Rate (%) Chemical Agent: species measured as bracketed (Copper, Zinc, Nickel, Boron, H = hinokitiol), else the agent named
Protocol: For chemical agents having low solubilities, they were added to aqueous lignosulfonic acid solution after it was warmed to 60 to 90° C., and it was cooled at 25° C. after the chemical agents were suspended, dispersed, dissolved by Vortex-Mixer, […]
The amount of lignosulfonic acid which leached off was determined by measurement of the absorbance at 280 nm, and the amount of the chemical agent which leached off was determined by complex formation and spectrophotometry using PAN (1-(2-pyridylazo)-2-naphthol, Aldrich Chemical Company) or quinalizarin (Wako Pure Chemicals), separation, identification and determination, using HPLC or gas chromatography, or atomic absorption analysis were performed, followed by calculation of the amount of the chemical agents which was eluted. When the chemical agents had absorption at 280 nm, the concentration of lignosulfonic acid was calculated by measuring the absorbance at 280 nm of the chemical agents of which the concentration was measured by the above-described method and subtracting an influence by the chemical agent from the absorbance at 280 nm of the liquid which was eluted. The amounts of the chemical agents and lignosulfonic acid which were eluted were calculated and compared taking the amounts of them injected upon the impregnation treatment as 100%.

[5] = leaching of Japan cedar blocks, treating mixture with tung oil (Example 8); settings: Example 1 enzyme, 5% LSA, 2,000 ppm tung oil; for Elution Rate (%) LSA: pH 8.1-8.5; for Elution Rate (%) Chemical Agent: pH 8.1-8.5, species as bracketed (Copper, Zinc, Nickel, H = hinokitiol), else the agent named
Protocol: The amounts of the chemical agents and lignosulfonic acid which were eluted were calculated and compared taking the amounts of them injected upon the impregnation treatment as 100%.

[6] = leaching of cypress blocks, peroxidase + alcohol oxidase (Example 7); settings: 5 U/ml peroxidase + 5 U/ml alcohol oxidase + 1% methanol
Text: The peroxidase used was obtained from horse radish (Type II, Sigma) and the alcohol oxidase used was obtained from Candida boidini (Boehringer Mannheim Biochemica).

[7] = in the absence of enzyme (comparison), pH 8.1-8.8
[8] = in the presence of enzyme, Japan cedar, pH of treating agent 8.1-8.8
[9] = in the presence of enzyme, pH 8.1-8.8

Molecule | Elution Rate (%) LSA [1] [%] | Elution Rate (%) Chemical Agent [1] [%] | Elution Rate (%) LSA [2] [%] | Elution Rate (%) Chemical Agent [2] [%] | Elution Rate (%) LSA [3] [%] | Elution Rate (%) Chemical Agent [3] [%] | Elution Rate (%) LSA [4, 7] [%] | Elution Rate (%) Chemical Agent [4, 7] [%] | Elution Rate (%) LSA [4, 8] [%] | Elution Rate (%) Chemical Agent [4, 9] [%] | Elution Rate (%) LSA [5] [%] | Elution Rate (%) Chemical Agent [5] [%] | Elution Rate (%) LSA ([6]; pH 8.1-8.8) [%] | Elution Rate (%) Chemical Agent ([6]; pH 8.1-8.8, species as bracketed (Copper, Zinc, Boron, H = hinokitiol), else the agent named) [%]
CC(C)=CCCC(C)=CC=O [100 ppm citral, citral] | – | – | – | – | 7.9 | 6.0 | 23.4 | 7.1 | 2.5 | 1.8 | – | – | – | –
CC1=CC[C@@H]2C[C@H]1C2(C)C [500 ppm (1R)-(+)-α-pinene, (1R)-(+)-α-pinene] | – | – | – | – | 1.0 | 1.2 | 22.8 | 7.3 | 0.6 | 0.3 | 0.7 | 0.2 | – | –
Cc1cc2cccc(C)c2cc1C [10 ppm 2,3,5-Trimethylnaphthalene, 2,3,5-Trimethylnaphthalene] | – | – | – | – | 2.4 | 0.3 | 23.3 | 5.6 | 0.8 | 0.1 | – | – | – | –
Nc1ccccc1N [o-Phenylenediamine (0.04 g), o-Phenylenediamine] | 2.1 | 0.8 | 1.5 | 0.4 | – | – | – | – | – | – | – | – | – | –
Nc1ccccc1N [200 ppm o-Phenylenediamine, o-Phenylenediamine] | – | – | – | – | 2.5 | 0.6 | 16.5 | 5.3 | 1.0 | 0.2 | – | – | – | –
O=CC=Cc1ccccc1 [100 ppm Cinnamaldehyde, Cinnamaldehyde] | – | – | – | – | 5.4 | 2.1 | 22.1 | 8.5 | 1.5 | 0.7 | 1.9 | 0.2 | – | –
CC(C)=CCCC(C)CCO (stereo not drawn) [100 ppm β-citronellol, β-citronellol] | – | – | – | – | 2.9 | 0.8 | 25.4 | 6.8 | 0.7 | 0.4 | 1.7 | 0.2 | – | –
OB(O)O [1% Boric acid, Boric acid] | – | – | – | – | 3.7 | 26.2 | 22.1 | 32.3 | 0.7 | 25.1 | – | – | 5.6 | 27.5
C=CCN=C=S [100 ppm Allyl isothiocyanate, Allyl isothiocyanate] | – | – | – | – | 8.5 | 7.8 | 26.3 | 7.5 | 3.5 | 2.2 | 2.1 | 1.3 | – | –

Next, values leading:

Elution Rate (%) LSA [1] [%] | Elution Rate (%) Chemical Agent [1] [%] | Elution Rate (%) LSA [2] [%] | Elution Rate (%) Chemical Agent [2] [%] | Elution Rate (%) LSA [3] [%] | Elution Rate (%) Chemical Agent [3] [%] | Elution Rate (%) LSA [4, 7] [%] | Elution Rate (%) Chemical Agent [4, 7] [%] | Elution Rate (%) LSA [4, 8] [%] | Elution Rate (%) Chemical Agent [4, 9] [%] | Elution Rate (%) LSA [5] [%] | Elution Rate (%) Chemical Agent [5] [%] | Elution Rate (%) LSA ([6]; pH 8.1-8.8) [%] | Elution Rate (%) Chemical Agent ([6]; pH 8.1-8.8, species as bracketed (Copper, Zinc, Boron, H = hinokitiol), else the agent named) [%] | Molecule
3.7 | 4.6 | 3.6 | 4.2 | – | – | – | – | – | – | – | – | – | – | O=C(OC[C@H]1O[C@@H](OC(=O)c2cc(O)c(O)c(OC(=O)c3cc(O)c(O)c(O)c3)c2)[C@H](OC(=O)c2cc(O)c(O)c(OC(=O)c3cc(O)c(O)c(O)c3)c2)[C@@H](OC(=O)c2cc(O)c(O)c(OC(=O)c3cc(O)c(O)c(O)c3)c2)[C@@H]1OC(=O)c1cc(O)c(O)c(OC(=O)c2cc(O)c(O)c(O)c2)c1)c1cc(O)c(O)c(OC(=O)c2cc(O)c(O)c(O)c2)c1 [Tannic acid (0.1 g), Tannic acid]
2.0 | 3.4 | 2.9 | 3.2 | – | – | – | – | – | – | – | – | – | – | (+)-Catechin.H2O [(+)-Catechin.H2O (0.2 g)]
– | – | – | – | 0.8 | 0.6 | 25.7 | 6.2 | 0.5 | 0.2 | 0.5 | 0.2 | – | – | CC12CCC(CC1)C(C)(C)O2 [500 ppm cineole, cineole]
– | – | – | – | 1.1 | 1.4 | 24.5 | 9.1 | 0.7 | 0.6 | 0.6 | 0.3 | – | – | CC1=CCC(C(C)(C)O)CC1 (stereo not drawn) [500 ppm α-terpineol, α-terpineol]
0.6 | – | 0.6 | 18.1 | – | – | – | – | – | – | – | – | – | – | OB(O)O [Boric acid (2 g), Boric acid]
– | – | – | – | 2.8 | 1.3 | 27.4 | 7.5 | 0.5 | 0.2 | 0.6 | 0.4 | – | – | CC1CCC(C(C)C)C(O)C1 [500 ppm (1R,2S,5R)-(−)-menthol, (1R,2S,5R)-(−)-menthol]
0.4 | 2.5 | 0.6 | 3.0 | – | – | – | – | – | – | – | – | – | – | CC(C)c1cccc(=O)c(O)c1 [Hinokitiol (0.2 g), Hinokitiol]
